Assay results from US6313305A, “Cephalosporins” (Hoechst Marion Roussel, priority 1991, dated 2001).
In brackets after ≈: the same amount, converted by molar mass. Structures can show the parent of a compound that is named as a salt.

Columns and labels:
Type in all cases: cell-based
[1] = tested on: Enterobacteria producting β lactamase with enlarged spectrum (16 strains); assay: In vitro activity, method of dilutions in solid medium (TABLE II): Enterobacteria producing β lactamase with enlarged spectrum; details: 24 h
Method: (§1) In Vitro Activity, Method of Dilutions in Solid Medium
(§2) A series of dishes was prepared in which an equal amount of sterile nutritional medium was distributed containing increasing amounts of the test product. Then, each dish was seeded with several bacteria strains and after incubation in an oven for 24 hours at 37° C., the growth inhibition was evaluated by the absence of any bacterial development, which allowed the minimal inhibiting concentrations (M.I.C.) to be determined expressed in micrograms/ml. The results were expressed in M.I.C. 90 which is the minimum concentration of antibiotic allowing the growth of the strains studied to be inhibited by […] (TABLE II).

[2] = tested on: Pseudomonas Aeruginosa (39 strains); assay: In vitro activity, method of dilutions in solid medium (TABLE II): Pseudomonas aeruginosa; details: 24 hours at 37° C.
Method: as §1, §2

[3] = tested on: oracillin-sensitive penicillin-resistants Staphylococci aureus (20 strains); assay: In vitro activity, method of dilutions in solid medium (TABLE II): oracillin-sensitive penicillin-resistant Staphylococcus aureus; details: 24 hours at 37° C.
Method: as §1, §2

[4] = tested on: Enterobacteria producing cephalosporinases (20 strains); assay: In vitro activity, method of dilutions in solid medium (TABLE II): Enterobacteria producing cephalosporinases; details: 24 h
Method: as §1, §2

## Nc1nc(/C(=N/OC(C(=O)O)c2cc(Cl)c(O)c(O)c2Cl)C(=O)N[C@@H]2C(=O)N3C(C(=O)[O-])=C(/C=C/C[n+]4cccc5c4CCC5)CS[C@H]23)cs1 (stereo partly drawn) [Example 27, Internal salt of (6R-(3-(E) 6α, 7β-(Z)))-1-(3-(7-(((2-amino-4-thiazolyl)-(carboxy-(2,5-dichloro-3,4-dihydroxy-phenyl)-methoxy)-imino)-acetamido)-2-carboxy-8-oxo-5-thia-1-azabicyclo[4,2,0]oct-2-en-3-yl)-2-propenyl)-6,7-dihydro-5H-pyrindinium]
[1]
  MIC90: 10 µg/mL
[2]
  MIC90: 0.08 µg/mL
[3]
  MIC90: 5 µg/mL
[4]
  MIC90: 0.3 µg/mL

## Nc1nc(/C(=N/OC(C(=O)O)c2cc(F)c(O)c(O)c2F)C(=O)N[C@@H]2C(=O)N3C(C(=O)[O-])=C(/C=C/C[n+]4ccn5ccccc54)CS[C@H]23)cs1 (stereo partly drawn) [Example 39, Internal Salt of (6R-(3-(E) 6α, 7β(Z)))-1-(3-(7-(((2-Amino-4-thiazolyl)(carboxy-(2,5-difluoro-3,4-dihydroxyphenyl)-methoxy)-imino)-acetamido)-2-carboxy-8-oxo-5-thia-1-azabicyclo[4,2,0]oct-2-en-3-yl)-2-propenyl)-imidazo(1,2-a)pyridinium]
[1]
  MIC90: 2.5 µg/mL
[2]
  MIC90: 0.08 µg/mL
[3]
  MIC90: 2.5 µg/mL
[4]
  MIC90: 0.3 µg/mL

## COc1cc(C(O/N=C(\C(=O)N[C@@H]2C(=O)N3C(C(=O)[O-])=C(/C=C/C[n+]4cccc5ccccc54)CS[C@H]23)c2csc(N)n2)C(=O)O)c(Cl)c(O)c1O (stereo partly drawn) [Example 43]
[1]
  MIC90: 1.2 µg/mL (≈ 1.56 µM)
[2]
  MIC90: 1.2 µg/mL (≈ 1.56 µM)
[3]
  MIC90: 0.3 µg/mL (≈ 0.391 µM)
[4]
  MIC90: 2.5 µg/mL (≈ 3.26 µM)
